How the values were obtained:
[1] = biological target: T1, human FPR2 (Homo sapiens, UniProt P25090); experiment: FPR2 cyclic adenosine monophosphate (cAMP) assay; format: cell-based; settings: CHO cells overexpressing human FPR2; forskolin 5 μM; inhibition of cAMP production; HTRF; read-out: hFPR2 cAMP2 EC50
T1 sequence (P25090 1-351): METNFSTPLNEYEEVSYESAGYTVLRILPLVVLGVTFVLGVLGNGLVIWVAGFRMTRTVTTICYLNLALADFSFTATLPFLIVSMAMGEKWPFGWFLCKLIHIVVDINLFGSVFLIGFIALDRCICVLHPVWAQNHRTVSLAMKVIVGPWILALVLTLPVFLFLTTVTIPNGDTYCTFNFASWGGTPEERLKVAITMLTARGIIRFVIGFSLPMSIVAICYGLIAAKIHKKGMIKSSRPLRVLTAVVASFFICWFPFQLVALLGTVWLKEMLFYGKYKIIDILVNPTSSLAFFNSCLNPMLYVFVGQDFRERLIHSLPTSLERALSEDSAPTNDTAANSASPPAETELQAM
How it was run: (§1)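 Gi-coupled activity is read as suppression of forskolin-stimulated cAMP (10 μM final for FPR1, 5 μM final for FPR2; IBMX 200 μM final) in recombinant CHO cells, 30 min incubation at rt, HTRF detection.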

[2] = biological target: T2, human FPR1 (Homo sapiens, UniProt P21462); experiment: FPR1 cyclic adenosine monophosphate (cAMP) assay; format: cell-based; settings: CHO cells overexpressing human FPR1; forskolin 10 μM; inhibition of cAMP production; HTRF; read-out: hFPR1 cAMP2 EC50
T2 sequence (P21462 1-350): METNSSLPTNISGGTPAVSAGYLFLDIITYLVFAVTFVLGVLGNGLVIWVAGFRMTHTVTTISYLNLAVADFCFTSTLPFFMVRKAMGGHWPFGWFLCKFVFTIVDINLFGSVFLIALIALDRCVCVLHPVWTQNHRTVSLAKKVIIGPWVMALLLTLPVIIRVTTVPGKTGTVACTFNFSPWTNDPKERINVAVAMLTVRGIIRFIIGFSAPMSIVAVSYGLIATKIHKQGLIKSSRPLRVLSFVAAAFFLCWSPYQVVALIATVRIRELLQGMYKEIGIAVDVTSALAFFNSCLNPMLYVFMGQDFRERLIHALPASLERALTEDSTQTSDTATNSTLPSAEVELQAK
How it was run: as §1

Row | EC50 [1] | EC50 [2] | SMILES
1 | 25 nM | > 10000 nM | COc1cc(F)c(-c2c(NC(=O)c3ccc(OC(F)F)cc3)c(=O)n(-c3cccc(F)c3Cl)n2C)c(F)c1 [Example 175, N-[2-(2-chloro-3-fluorophenyl)-5-(2,6-difluoro-4-methoxyphenyl)-1-methyl-3-oxo-2,3-dihydro-1H-pyrazol-4-yl]-4-(difluoromethoxy)benzamide]
2 | 9 nM | > 10000 nM | COc1cc(F)c(-c2c(NC(=O)c3ccc(OC(F)F)cc3)c(=O)n(-c3cc(Cl)ccc3Cl)n2C)c(F)c1 [Example 176, N-[2-(2,5-dichlorophenyl)-5-(2,6-difluoro-4-methoxyphenyl)-1-methyl-3-oxo-2,3-dihydro-1H-pyrazol-4-yl]-4-(difluoromethoxy)benzamide]
3 | 3 nM | 3 nM | COc1cc(F)c(-c2c(NC(=O)c3ccc(OC(F)F)cc3)c(=O)n(-c3cccc(OC(F)F)c3)n2C)c(F)c1 [Example 177, N-[5-(2,6-difluoro-4-methoxyphenyl)-2-[3-(difluoromethoxy)phenyl]-1-methyl-3-oxo-2,3-dihydro-1H-pyrazol-4-yl]-4-(difluoromethoxy)benzamide]
4 | 6 nM | > 10000 nM | COc1cc(F)c(-c2c(NC(=O)c3ccc(OC(F)F)cc3)c(=O)n(-c3cccc(F)c3C#N)n2C)c(F)c1 [Example 178, N-[2-(2-cyano-3-fluorophenyl)-5-(2,6-difluoro-4-methoxyphenyl)-1-methyl-3-oxo-2,3-dihydro-1H-pyrazol-4-yl]-4-(difluoromethoxy)benzamide]
5 | 23 nM | 300 nM | COc1cc(F)c(-c2c(NC(=O)c3ccc(OC(F)F)cc3)c(=O)n(-c3cc(C#N)ccc3C#N)n2C)c(F)c1 [Example 179, N-[2-(2,5-dicyanophenyl)-5-(2,6-difluoro-4-methoxyphenyl)-1-methyl-3-oxo-2,3-dihydro-1H-pyrazol-4-yl]-4-(difluoromethoxy)benzamide]
6 | 8 nM | > 10000 nM | COc1cc(F)c(-c2c(NC(=O)c3ccc(OC(F)F)cc3)c(=O)n(-c3nccc(C)c3Cl)n2C)c(F)c1 [Example 180, N-[2-(3-chloro-4-methylpyridin-2-yl)-5-(2,6-difluoro-4-methoxyphenyl)-1-methyl-3-oxo-2,3-dihydro-1H-pyrazol-4-yl]-4-(difluoromethoxy)benzamide]
7 | 6 nM | 140 nM | COc1cc(F)c(-c2c(NC(=O)c3ccc(OC(F)F)cc3)c(=O)n(-c3cccc(OC)c3Cl)n2C)c(F)c1 [Example 181, N-[2-(2-chloro-3-methoxyphenyl)-5-(2,6-difluoro-4-methoxyphenyl)-1-methyl-3-oxo-2,3-dihydro-1H-pyrazol-4-yl]-4-(difluoromethoxy)benzamide]
8 | 12 nM | > 10000 nM | COc1cc(F)c(-c2c(NC(=O)c3ccc(OC(F)F)cc3)c(=O)n(-c3nc(OC)ccc3Cl)n2C)c(F)c1 [Example 182, N-[2-(3-chloro-6-methoxypyridin-2-yl)-5-(2,6-difluoro-4-methoxyphenyl)-1-methyl-3-oxo-2,3-dihydro-1H-pyrazol-4-yl]-4-(difluoromethoxy)benzamide]
9 | 11 nM | 3900 nM | COc1cc(F)c(-c2c(NC(=O)c3ccc(OC(F)F)cc3)c(=O)n(-c3cc(OC)ccc3C#N)n2C)c(F)c1 [Example 183, N-[2-(2-cyano-5-methoxyphenyl)-5-(2,6-difluoro-4-methoxyphenyl)-1-methyl-3-oxo-2,3-dihydro-1H-pyrazol-4-yl]-4-(difluoromethoxy)benzamide]
10 | 8 nM | > 10000 nM | COc1cc(F)c(-c2c(NC(=O)c3ccc(OC(F)F)cc3)c(=O)n(-c3cccc(OC)c3C#N)n2C)c(F)c1 [Example 184, N-[2-(2-cyano-3-methoxyphenyl)-5-(2,6-difluoro-4-methoxyphenyl)-1-methyl-3-oxo-2,3-dihydro-1H-pyrazol-4-yl]-4-(difluoromethoxy)benzamide]
11 | 5 nM | > 10000 nM | COc1cc(F)c(-c2c(NC(=O)c3ccc(OC(F)F)cc3)c(=O)n(-c3nc(OC)ccc3C#N)n2C)c(F)c1 [Example 185, N-[2-(3-cyano-6-methoxypyridin-2-yl)-5-(2,6-difluoro-4-methoxyphenyl)-1-methyl-3-oxo-2,3-dihydro-1H-pyrazol-4-yl]-4-(difluoromethoxy)benzamide]
12 | 10 nM | > 10000 nM | COc1cc(F)c(-c2c(NC(=O)c3ccc(OC(F)F)cc3)c(=O)n(-c3cc(F)ccc3Cl)n2C)c(F)c1 [Example 186, N-[2-(2-chloro-5-fluorophenyl)-5-(2,6-difluoro-4-methoxyphenyl)-1-methyl-3-oxo-2,3-dihydro-1H-pyrazol-4-yl]-4-(difluoromethoxy)benzamide]
13 | 4 nM | 2200 nM | COc1cc(F)c(-c2c(NC(=O)c3ccc(OC(F)F)cc3)c(=O)n(-c3cccc(Cl)c3F)n2C)c(F)c1 [Example 187, N-[2-(3-chloro-2-fluorophenyl)-5-(2,6-difluoro-4-methoxyphenyl)-1-methyl-3-oxo-2,3-dihydro-1H-pyrazol-4-yl]-4-(difluoromethoxy)benzamide]
14 | 14 nM | > 10000 nM | COc1cc(F)c(-c2c(NC(=O)c3ccc(OC(F)F)cc3)c(=O)n(-c3cc(F)ccc3C#N)n2C)c(F)c1 [Example 188, N-[2-(2-cyano-5-fluorophenyl)-5-(2,6-difluoro-4-methoxyphenyl)-1-methyl-3-oxo-2,3-dihydro-1H-pyrazol-4-yl]-4-(difluoromethoxy)benzamide]
15 | 5 nM | 190 nM | COc1cc(F)c(-c2c(NC(=O)c3ccc(OC(F)F)cc3)c(=O)n(-c3cccc(C#N)c3F)n2C)c(F)c1 [Example 189, N-[2-(3-cyano-2-fluorophenyl)-5-(2,6-difluoro-4-methoxyphenyl)-1-methyl-3-oxo-2,3-dihydro-1H-pyrazol-4-yl]-4-(difluoromethoxy)benzamide]
16 | 3 nM | > 10000 nM | COc1cc(F)c(-c2c(NC(=O)c3ccc(OC(F)F)cc3)c(=O)n(-c3nc(C(C)(C)C)ccc3C#N)n2C)c(F)c1 [Example 190, N-[2-(6-tert-butyl-3-cyanopyridin-2-yl)-5-(2,6-difluoro-4-methoxyphenyl)-1-methyl-3-oxo-2,3-dihydro-1H-pyrazol-4-yl]-4-(difluoromethoxy)benzamide]
17 | 2 nM | 4800 nM | COc1cc(F)c(-c2c(NC(=O)c3ccc(OC(F)F)cc3)c(=O)n(-c3nc(C4CCC4)ccc3C#N)n2C)c(F)c1 [Example 191, N-(2-(3-cyano-6-cyclobutylpyridin-2-yl)-5-(2,6-difluoro-4-methoxyphenyl)-1-methyl-3-oxo-2,3-dihydro-1H-pyrazol-4-yl)-4-(difluoromethoxy)benzamide]
18 | 4 nM | > 10000 nM | CCOC1(c2ccc(C#N)c(-n3c(=O)c(NC(=O)c4ccc(OC(F)F)cc4)c(-c4c(F)cc(OC)cc4F)n3C)n2)CC1 [Example 192, N-{2-[3-cyano-6-(1-ethoxycyclopropyl)pyridin-2-yl]-5-(2,6-difluoro-4-methoxyphenyl)-1-methyl-3-oxo-2,3-dihydro-1H-pyrazol-4-yl}-4-(difluoromethoxy)benzamide]
19 | 5 nM | > 10000 nM | COc1cc(F)c(-c2c(NC(=O)c3ccc(OC(F)F)cc3)c(=O)n(-c3nc(C(C)(C)F)ccc3C#N)n2C)c(F)c1 [Example 194, N-{2-[3-cyano-6-(2-fluoropropan-2-yl)pyridin-2-yl]-5-(2,6-difluoro-4-methoxyphenyl)-1-methyl-3-oxo-2,3-dihydro-1H-pyrazol-4-yl}-4-(difluoromethoxy)benzamide]
20 | 14 nM | > 10000 nM | COc1cc(F)c(-c2c(NC(=O)c3ccc(OC(F)F)cc3)c(=O)n(-c3nc(CO)ccc3C(F)(F)F)n2C)c(F)c1 [Example 195, N-[5-(2,6-difluoro-4-methoxyphenyl)-2-[6-(hydroxymethyl)-3-(trifluoromethyl)pyridin-2-yl]-1-methyl-3-oxo-2,3-dihydro-1H-pyrazol-4-yl]-4-(difluoromethoxy)benzamide]
21 | 9 nM | > 10000 nM | COCc1ccc(C(F)(F)F)c(-n2c(=O)c(NC(=O)c3ccc(OC(F)F)cc3)c(-c3c(F)cc(OC)cc3F)n2C)n1 [Example 196, N-[5-(2,6-difluoro-4-methoxyphenyl)-2-[6-(methoxymethyl)-3-(trifluoromethyl)pyridin-2-yl]-1-methyl-3-oxo-2,3-dihydro-1H-pyrazol-4-yl]-4-(difluoromethoxy)benzamide]
